Reference: patent US12371428B2 (Exelixis, Inc., priority 2019, dated 2025)

Legend:
[1] = biological target: Human KDR (residues 790-1356) (Homo sapiens (Human), UniProt P35968); experiment: Human KDR kinase assay, HTRF KinEase (Example B-2); format: biochemical; conditions: protocol of Example B-2 (other compounds)
In short: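 Ten compound concentrations (3% DMSO final) were pre-plated, then KDR (790-1356) with biotinylated peptide in Mg/Mn/DTT buffer was added; ATP at Km (4.0 μM) started a 40 min room-temperature reaction. Detection used Eu-TK antibody and SA-XL665 in EDTA buffer; activity normalized to DMSO and reference inhibitor, IC50 by logistic fit.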

[2] = biological target: Mer (phospho-Mer, MERTK-transfected 293A cells) (Homo sapiens (Human), UniProt Q12866); experiment: Mer autophosphorylation ELISA in transient transfected 293A cells (Example H); format: cell-based; conditions: cellular activity; Mer autophosphorylation ELISA in transient transfected 293A cells
Chain of Mer (phospho-Mer, MERTK-transfected 293A cells) (Q12866 21-999): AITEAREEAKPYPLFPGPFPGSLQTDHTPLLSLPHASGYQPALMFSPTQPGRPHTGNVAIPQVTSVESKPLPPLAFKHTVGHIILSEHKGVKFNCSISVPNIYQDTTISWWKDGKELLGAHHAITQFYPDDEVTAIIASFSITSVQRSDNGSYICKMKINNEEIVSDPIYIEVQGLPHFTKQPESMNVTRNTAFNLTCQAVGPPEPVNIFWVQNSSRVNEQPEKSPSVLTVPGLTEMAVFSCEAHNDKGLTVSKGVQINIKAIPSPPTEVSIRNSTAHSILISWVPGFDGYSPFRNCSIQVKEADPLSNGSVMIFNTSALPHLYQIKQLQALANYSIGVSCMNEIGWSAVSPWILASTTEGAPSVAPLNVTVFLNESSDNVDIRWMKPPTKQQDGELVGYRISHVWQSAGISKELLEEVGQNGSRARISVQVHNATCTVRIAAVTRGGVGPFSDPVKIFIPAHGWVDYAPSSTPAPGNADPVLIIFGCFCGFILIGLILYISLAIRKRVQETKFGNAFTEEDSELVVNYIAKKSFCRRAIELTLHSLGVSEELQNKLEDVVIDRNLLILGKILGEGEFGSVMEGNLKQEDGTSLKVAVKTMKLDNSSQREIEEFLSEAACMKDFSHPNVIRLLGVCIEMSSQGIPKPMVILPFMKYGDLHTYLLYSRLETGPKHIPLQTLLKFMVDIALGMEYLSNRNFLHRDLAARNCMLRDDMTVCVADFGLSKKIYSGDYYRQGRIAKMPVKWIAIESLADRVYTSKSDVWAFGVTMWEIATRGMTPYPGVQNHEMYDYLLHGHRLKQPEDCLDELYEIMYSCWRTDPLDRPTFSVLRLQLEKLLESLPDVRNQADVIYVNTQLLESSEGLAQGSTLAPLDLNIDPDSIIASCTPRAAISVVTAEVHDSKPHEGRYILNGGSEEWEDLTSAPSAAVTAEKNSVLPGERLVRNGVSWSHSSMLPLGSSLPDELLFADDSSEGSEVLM
In short: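 MERTK-transfected 293A; 8-pt dose, 1 h, serum-free, 0.3% DMSO. Cold lysis with orthovanadate and protease/phosphatase inhibitors. Phospho-Mer by DuoSet IC ELISA vs phospho-Mer standard. IC50: 4-PL fit; DMSO = 100%, reference inhibitor = 0%.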

[3] = biological target: KDR (phospho-KDR, VEGF165-stimulated HUVEC cells) (Homo sapiens (Human), UniProt P35968); experiment: KDR autophosphorylation ELISA in HUVEC cells (Example G); format: cell-based; conditions: cellular activity; KDR autophosphorylation ELISA in HUVEC cells
Chain of KDR (phospho-KDR, VEGF165-stimulated HUVEC cells) (P35968 20-1356): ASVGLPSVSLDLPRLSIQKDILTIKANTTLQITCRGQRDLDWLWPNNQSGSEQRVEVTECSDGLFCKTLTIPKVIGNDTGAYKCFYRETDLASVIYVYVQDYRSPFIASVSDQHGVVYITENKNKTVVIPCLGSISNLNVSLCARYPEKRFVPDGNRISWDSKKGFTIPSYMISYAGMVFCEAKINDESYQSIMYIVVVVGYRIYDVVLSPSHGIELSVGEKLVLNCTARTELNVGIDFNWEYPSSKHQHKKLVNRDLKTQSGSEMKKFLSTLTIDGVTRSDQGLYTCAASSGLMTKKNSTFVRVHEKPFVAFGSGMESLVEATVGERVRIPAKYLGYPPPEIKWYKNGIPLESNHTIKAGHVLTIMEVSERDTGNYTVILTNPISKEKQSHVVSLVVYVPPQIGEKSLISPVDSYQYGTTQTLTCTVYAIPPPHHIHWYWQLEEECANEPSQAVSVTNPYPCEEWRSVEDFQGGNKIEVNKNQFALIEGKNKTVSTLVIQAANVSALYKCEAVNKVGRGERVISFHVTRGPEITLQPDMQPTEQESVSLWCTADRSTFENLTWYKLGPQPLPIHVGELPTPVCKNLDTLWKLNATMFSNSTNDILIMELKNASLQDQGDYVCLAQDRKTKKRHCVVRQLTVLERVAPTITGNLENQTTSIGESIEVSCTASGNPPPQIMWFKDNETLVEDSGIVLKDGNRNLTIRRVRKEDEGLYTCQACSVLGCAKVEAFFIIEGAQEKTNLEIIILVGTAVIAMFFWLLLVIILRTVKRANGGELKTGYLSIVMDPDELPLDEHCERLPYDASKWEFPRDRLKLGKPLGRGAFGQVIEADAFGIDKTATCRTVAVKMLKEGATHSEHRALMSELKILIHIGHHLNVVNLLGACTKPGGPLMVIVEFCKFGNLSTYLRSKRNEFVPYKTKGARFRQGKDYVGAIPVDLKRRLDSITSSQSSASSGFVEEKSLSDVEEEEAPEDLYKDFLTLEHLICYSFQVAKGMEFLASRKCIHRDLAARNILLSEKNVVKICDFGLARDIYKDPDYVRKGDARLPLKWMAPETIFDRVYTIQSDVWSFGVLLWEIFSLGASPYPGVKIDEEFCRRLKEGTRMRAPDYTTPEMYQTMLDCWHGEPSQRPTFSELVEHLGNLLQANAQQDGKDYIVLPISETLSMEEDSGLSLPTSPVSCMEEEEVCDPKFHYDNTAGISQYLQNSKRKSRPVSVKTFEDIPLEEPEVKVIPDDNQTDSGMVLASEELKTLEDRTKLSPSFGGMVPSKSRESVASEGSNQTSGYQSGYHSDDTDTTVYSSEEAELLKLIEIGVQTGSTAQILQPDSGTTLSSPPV
In short: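 Inhibition of VEGF165-driven KDR autophosphorylation is measured in primary human umbilical vein endothelial cells after 24 h serum deprivation. Compound preincubation lasts 1 h before a 5-minute challenge with 100 ng/mL ligand, and phosphorylated receptor is then measured by ELISA in the lysates.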

Chain of Human KDR (residues 790-1356) (P35968 790-1356): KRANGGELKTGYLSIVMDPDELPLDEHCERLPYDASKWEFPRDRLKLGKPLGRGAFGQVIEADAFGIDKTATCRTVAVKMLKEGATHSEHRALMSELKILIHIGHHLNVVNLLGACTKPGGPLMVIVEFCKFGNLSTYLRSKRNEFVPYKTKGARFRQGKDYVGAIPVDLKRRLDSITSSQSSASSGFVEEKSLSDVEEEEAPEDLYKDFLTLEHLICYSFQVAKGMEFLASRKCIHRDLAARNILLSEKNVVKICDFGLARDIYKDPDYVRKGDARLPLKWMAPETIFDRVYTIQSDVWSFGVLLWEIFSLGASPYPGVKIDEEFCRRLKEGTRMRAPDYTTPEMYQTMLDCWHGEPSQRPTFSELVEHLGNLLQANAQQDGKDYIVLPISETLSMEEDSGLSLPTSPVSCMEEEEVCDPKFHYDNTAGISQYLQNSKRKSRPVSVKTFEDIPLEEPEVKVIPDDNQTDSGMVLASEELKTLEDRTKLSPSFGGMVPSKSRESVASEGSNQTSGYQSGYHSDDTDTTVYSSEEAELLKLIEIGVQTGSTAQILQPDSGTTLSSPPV

| Structure (SMILES) | IC50 [1] [nM] | IC50 [2] [nM] | IC50 [3] [nM] |
| --- | --- | --- | --- |
| COc1ccc2c(Oc3ccc(NC(=O)c4cnc(C)c(-c5ccc(F)cc5)c4O)cc3)ccnc2c1 [Compound 108, 5-(4-Fluorophenyl)-4-hydroxy-N-[4-(7-methoxyquinolin-4-yl)oxyphenyl]-6-methylpyridine-3-carboxamide] | < 100 | < 100 | < 100 |
| COc1cnc2c(Oc3ccc(NC(=O)c4cn(C)cc(-c5ccc(F)cc5)c4=O)cc3F)ccnc2c1 [Compound 112, N-[3-Fluoro-4-[(7-methoxy-1,5-naphthyridin-4-yl)oxy]phenyl]-5-(4-fluorophenyl)-1-methyl-4-oxopyridine-3-carboxamide] | > 300 | < 100 | > 300 |
| CCn1cc(C(=O)Nc2ccc(Oc3ccnc4cc(OC)ccc34)c(F)c2)c(=O)c(-c2ccc(F)cc2)c1C [Compound 107, 1-Ethyl-N-[3-fluoro-4-(7-methoxyquinolin-4-yl)oxyphenyl]-5-(4-fluorophenyl)-6-methyl-4-oxopyridine-3-carboxamide] | > 300 | < 100 | 100 to 300 |
| COc1cc2nccc(Oc3ccc(NC(=O)c4cncc(-c5ccc(F)cc5)c4O)cc3)c2nc1OC [Compound 118, N-[4-[(6,7-Dimethoxy-1,5-naphthyridin-4-yl)oxy]phenyl]-5-(4-fluorophenyl)-4-hydroxypyridine-3-carboxamide] | < 100 | < 100 | < 100 |
| COc1cc2nccc(Oc3ccc(NC(=O)c4cnc(C)c(-c5ccc(F)cc5)c4O)cc3F)c2cc1OC [Compound 109, N-[4-(6,7-Dimethoxyquinolin-4-yl)oxy-3-fluorophenyl]-5-(4-fluorophenyl)-4-hydroxy-6-methylpyridine-3-carboxamide] | < 100 | < 100 | < 100 |
| COc1ccc2nccc(Oc3ccc(NC(=O)c4cn(C)c(C)c(-c5ccc(F)cc5)c4=O)cc3F)c2n1 [Compound 113, N-[3-Fluoro-4-[(6-methoxy-1,5-naphthyridin-4-yl)oxy]phenyl]-5-(4-fluorophenyl)-1,6-dimethyl-4-oxopyridine-3-carboxamide] | > 300 | < 100 | > 300 |
| COc1ccc2c(Oc3ccc(NC(=O)c4cnc(C)c(-c5ccc(F)cc5)c4O)cc3F)ccnc2c1 [Compound 105, N-[3-Fluoro-4-(7-methoxyquinolin-4-yl)oxyphenyl]-5-(4-fluorophenyl)-4-hydroxy-6-methylpyridine-3-carboxamide] | 100 to 300 | < 100 | < 100 |
| COc1ccc2c(Oc3ccc(NC(=O)c4cn(C(C)C)c(C)c(-c5ccc(F)cc5)c4=O)cc3F)ccnc2c1 [Compound 106, N-[3-Fluoro-4-(7-methoxyquinolin-4-yl)oxyphenyl]-5-(4-fluorophenyl)-6-methyl-4-oxo-1-propan-2-ylpyridine-3-carboxamide] | > 300 | < 100 | 100 to 300 |
| COc1cnc2c(Oc3ccc(NC(=O)c4cn(C)c(C)c(-c5ccc(F)cc5)c4=O)cc3)ccnc2c1 [Compound 111, 5-(4-Fluorophenyl)-N-[4-[(7-methoxy-1,5-naphthyridin-4-yl)oxy]phenyl]-1,6-dimethyl-4-oxopyridine-3-carboxamide] | > 300 | < 100 | > 300 |
| COc1cc2nccc(Oc3ccc(NC(=O)c4cn(C(C)C)c(C)c(-c5ccc(F)cc5)c4=O)cc3)c2nc1OC [Compound 115, N-[4-[(6,7-Dimethoxy-1,5-naphthyridin-4-yl)oxy]phenyl]-5-(4-fluorophenyl)-6-methyl-4-oxo-1-propan-2-ylpyridine-3-carboxamide] | < 100 | < 100 | > 300 |

Further lines, results first:

| IC50 [1] [nM] | IC50 [2] [nM] | IC50 [3] [nM] | Structure (SMILES) |
| --- | --- | --- | --- |
| < 100 | < 100 | < 100 | COc1cc2nccc(Oc3ccc(NC(=O)c4cn(CCO)cc(-c5ccc(F)cc5)c4=O)cc3F)c2nc1OC [Compound 117, N-[4-[(6,7-Dimethoxy-1,5-naphthyridin-4-yl)oxy]-3-fluorophenyl]-5-(4-fluorophenyl)-1-(2-hydroxyethyl)-4-oxopyridine-3-carboxamide] |
| < 100 | < 100 | < 100 | COc1cc2nccc(Oc3ccc(NC(=O)c4c(C)ncn(-c5ccc(F)cc5)c4=O)cc3F)c2nc1OC [Compound 98, N-[4-[(6,7-Dimethoxy-1,5-naphthyridin-4-yl)oxy]-3-fluorophenyl]-1-(4-fluorophenyl)-4-methyl-6-oxopyrimidine-5-carboxamide] |
| < 100 | < 100 | < 100 | COc1cc2nccc(Oc3ccc(NC(=O)c4cnc(N(C)C)n(-c5ccc(F)cc5)c4=O)cc3F)c2nc1OC [Compound 100, N-[4-[(6,7-Dimethoxy-1,5-naphthyridin-4-yl)oxy]-3-fluorophenyl]-2-(dimethylamino)-1-(4-fluorophenyl)-6-oxopyrimidine-5-carboxamide] |
| < 100 | < 100 | < 100 | CCn1cc(C(=O)Nc2ccc(Oc3ccnc4cc(OC)c(OC)nc34)c(F)c2)c(=O)c(-c2ccc(F)cc2)c1 [Compound 116, N-[4-[(6,7-Dimethoxy-1,5-naphthyridin-4-yl)oxy]-3-fluorophenyl]-1-ethyl-5-(4-fluorophenyl)-4-oxopyridine-3-carboxamide] |
| < 100 | < 100 | < 100 | COc1cc2nccc(Oc3ccc(NC(=O)c4cnc(C)n(-c5ccc(F)cc5)c4=O)cc3F)c2nc1OC [Compound 97, N-[4-[(6,7-Dimethoxy-1,5-naphthyridin-4-yl)oxy]-3-fluorophenyl]-1-(4-fluorophenyl)-2-methyl-6-oxopyrimidine-5-carboxamide] |
| < 100 | < 100 | < 100 | COc1cc2nccc(Oc3ccc(NC(=O)c4c[nH]c(=O)n(-c5ccc(F)cc5)c4=O)cc3F)c2nc1OC [Compound 102, N-[4-[(6,7-Dimethoxy-1,5-naphthyridin-4-yl)oxy]-3-fluorophenyl]-3-(4-fluorophenyl)-2,4-dioxo-1H-pyrimidine-5-carboxamide] |
| < 100 | < 100 | < 100 | COc1cc2nccc(Oc3ccc(NC(=O)c4c(C)nc(C)n(-c5ccc(F)cc5)c4=O)cc3F)c2nc1OC [Compound 101, N-[4-[(6,7-Dimethoxy-1,5-naphthyridin-4-yl)oxy]-3-fluorophenyl]-1-(4-fluorophenyl)-2,4-dimethyl-6-oxopyrimidine-5-carboxamide] |
